Data published in patent US20230096766A1, “AMINO ACID HAVING FUNCTIONAL GROUP CAPABLE OF INTERMOLECULAR HYDROGEN BONDING, PEPTIDE COMPOUND CONTAINING SAME AND METHOD FOR PRODUCTION THEREOF” (Chugai Seiyaku Kabushiki Kaisha, priority 2018, published 2023).
*1 amine or outer side, *2 acyl side, *3 side chain or, on linkers, in order; H or OH if unused. Where a SMILES comes first, the peptide text is derived from it. Bridges are numbered along the chain shown (N, C = ends). [ ]: non-standard residue; d: D form. The star is where a group is joined. ξ: configuration not given here. Phe(3-OMe,4-CONHMs) = COc1cc(C[C@H](N)C(=O)O)ccc1C(=O)NS(C)(=O)=O; dhPhe(4-CONHMe,3-OMe) = CNC(=O)c1ccc(CC[C@@H](N)C(=O)O)cc1OC; hPhe(3-OMe,4-CONHMe) = CNC(=O)c1ccc(CC[C@H](N)C(=O)O)cc1OC; Phe(3-OMe,4-CONHMe) = CNC(=O)c1ccc(C[C@H](N)C(=O)O)cc1OC; NMePhe(3-Cl) = CN[C@@H](Cc1cccc(Cl)c1)C(=O)O; X9 = O=C([C@@H](CN[*:1])COCCO)[*:2]; NMeF = CN[C@@H](Cc1ccccc1)C(=O)O; NMeGABA = CN(CCCC(=O)[*:2])[*:1]; NMeI = CC[C@H](C)[C@H](NC)C(=O)O; ξThr(3R) = C[C@@H](O)C(N)C(=O)O; CH2CH(OH)CF3 = OC(C*)C(F)(F)F; NMeL = CN[C@@H](CC(C)C)C(=O)O; Thr(3ξ) = CC(O)[C@H](N)C(=O)O; Propyl(2R-OH) = C[C@@H](O)C*; NMeV = CN[C@H](C(=O)O)C(C)C; NMeA = CN[C@@H](C)C(=O)O; Piperidide = C1CCN(*)CC1; NBuGly = CCCCNCC(=O)O; Sar = CNCC(=O)O; tBu = CC(C)(C)*

Assay: in vitro
Settings: human

Compound | Papp (Caco-2, Caco-2 (cm/sec)) | other results
CC(C)C[C@@H]1NC(=O)[C@H](CC(C)C)N(C)C(=O)[C@H](Cc2cccc(Cl)c2)N(C)C(=O)[C@H](COCCO)CNC(=O)[C@H](CC(C)C)N(C)C(=O)CCCN(C)C(=O)C[C@@H](C(=O)N2CCCCC2)NC(=O)[C@H](CC(C)C)N(C)C(=O)[C@H](CC(C)C)N(C)C(=O)[C@H]([C@@H](C)O)NC(=O)[C@H](CC(C)C)N(C)C1=O [AP129] ([NMeGABA][NMeL][X9][NMePhe(3-Cl)][NMeL]L[NMeL]T[NMeL][NMeL]D-Piperidide; lactam N-11) | 0.46 ×10⁻⁶ cm/s | 
CNC(=O)c1ccc(CC[C@H]2NC(=O)[C@H](CC(C)C)N(C)C(=O)CN(C)C(=O)C([C@@H](C)O)NC(=O)[C@H](CC(C)C)N(C)C(=O)[C@H](CC(C)C)NC(=O)[C@H](Cc3ccccc3)N(C)C(=O)[C@@H](C(C)C)NC(=O)C[C@@H](C(=O)N3CCCCC3)NC(=O)[C@H](CC(C)C)N(C)C(=O)[C@H](CC(C)C)N(C)C2=O)cc1OC (stereo partly drawn) [AP208] ([dV][NMeF]L[NMeL][ξThr(3R)][Sar][NMeL][dhPhe(4-CONHMe,3-OMe)][NMeL][NMeL]D-Piperidide; lactam N-11) | 0.6 ×10⁻⁶ cm/s | 
CC(C)C[C@H]1C(=O)N[C@H](C(=O)N(C)[C@@H](Cc2ccccc2)C(=O)N[C@@H](C)C(=O)N2CCCCC2)CC(=O)N(C)[C@@H](C)C(=O)N[C@@H]([C@@H](C)O)C(=O)N(C)[C@@H](C)C(=O)N(C)[C@@H](CC(C)C)C(=O)N[C@@H](C(C)C)C(=O)N(C)[C@@H](Cc2ccccc2)C(=O)N[C@@H](Cc2ccccc2)C(=O)N1C [pd212] ([NMeA]T[NMeA][NMeL]V[NMeF]F[NMeL]D[NMeF]A-Piperidide; lactam N-9) | 1.4 ×10⁻⁶ cm/s | 
CC[C@H](C)[C@@H]1NC(=O)[C@H](Cc2ccccc2)N(C)C(=O)[C@H]([C@@H](C)O)NC(=O)[C@@H](C)NC(=O)C[C@@H](C(=O)N(C)[C@@H](Cc2ccccc2)C(=O)N(C)[C@@H](Cc2ccccc2)C(=O)N[C@@H](C)C(=O)N2CCCCC2)NC(=O)[C@H](CC(C)C)N(C)C(=O)[C@H](CC(C)C)N(C)C(=O)[C@H](Cc2ccccc2)N(C)C(=O)[C@H](CC(C)C)N(C)C(=O)[C@H](C)N(C)C1=O [pd242] ([dA]T[NMeF]I[NMeA][NMeL][NMeF][NMeL][NMeL]D[NMeF][NMeF]A-Piperidide; lactam N-10) |  | Papp (Caco-2, Caco-2 (cm/sec) Papp): 0.058 ×10⁻⁶ cm/s
CC(C)C[C@@H]1NC(=O)[C@H](Cc2ccccc2)N(C)C(=O)[C@@H](CC(C)C)NC(=O)C[C@@H](C(=O)N2CCCCC2)NC(=O)[C@H](CC(C)C)N(C)C(=O)[C@H](Cc2ccccc2)N(C)C(=O)[C@H](COC(C)(C)C)NC(=O)[C@H](CC(C)C)N(C)C(=O)CN(C)C(=O)[C@H](COC[C@@H](C)O)NC(=O)[C@H](CC(C)C)N(C)C1=O [AP81] ([dL][NMeF]L[NMeL]S(Propyl(2R-OH))[Sar][NMeL]S(tBu)[NMeF][NMeL]D-Piperidide; lactam N-11) | 0.69 ×10⁻⁶ cm/s | 
CNC(=O)c1ccc(C[C@@H]2NC(=O)[C@H](CC(C)C)N(C)C(=O)[C@H](CC(C)C)N(C)C(=O)[C@H](CC(C)C)NC(=O)[C@H](CC(C)C)N(C)C(=O)C[C@@H](C(=O)N3CCCCC3)NC(=O)[C@H](CC(C)C)N(C)C(=O)CN(C)C(=O)[C@H](C(C)O)NC(=O)[C@H](C(C)C)N(C)C(=O)[C@H](CC(C)C)N(C)C2=O)cc1OC (stereo partly drawn) [AP32] ([NMeL]L[NMeL][NMeL][Phe(3-OMe,4-CONHMe)][NMeL][NMeV][Thr(3ξ)][Sar][NMeL]D-Piperidide; lactam N-11) | 1.3 ×10⁻⁶ cm/s | 
CC[C@H](C)[C@@H]1NC(=O)[C@H](CC(C)C)N(C)C(=O)CCCN(C)C(=O)C[C@@H](C(=O)N2CCCCC2)NC(=O)[C@H](CC(C)C)N(C)C(=O)[C@H](CC(C)C)N(C)C(=O)[C@H]([C@@H](C)O)NC(=O)[C@H](CC(C)C)N(C)C(=O)[C@H](Cc2ccc(C(=O)NS(C)(=O)=O)c(OC)c2)NC(=O)[C@H](CC(C)C)N(C)C(=O)[C@H](Cc2ccccc2)N(C)C1=O [AP138] ([NMeGABA][NMeL]I[NMeF][NMeL][Phe(3-OMe,4-CONHMs)][NMeL]T[NMeL][NMeL]D-Piperidide; lactam N-11) | 0.06 ×10⁻⁶ cm/s | 
CC[C@H](C)[C@H]1C(=O)N[C@@H]([C@@H](C)O)C(=O)N(C)CC(=O)N(C)[C@@H](CC(C)C)C(=O)N[C@H](C(=O)N2CCCCC2)CC(=O)N(C)[C@@H](C(C)C)C(=O)N[C@@H](CC(C)C)C(=O)N(C)[C@@H](CC(C)C)C(=O)N(C)[C@@H](Cc2ccccc2)C(=O)N[C@@H](COCC(O)C(F)(F)F)C(=O)N(C)[C@@H](Cc2ccccc2)C(=O)N1C (stereo partly drawn) [Compound C05] ([NMeV]L[NMeL][NMeF]S(CH2CH(OH)CF3)[NMeF][NMeI]T[Sar][NMeL]D-Piperidide; lactam N-11) |  | Papp (Caco-2, Caco-2 (membrane permeability)): 0.57 ×10⁻⁶ cm/s
CCCCN1CC(=O)N[C@@H](CC(C)C)C(=O)N2CCC[C@H]2C(=O)N(C)[C@@H](C(C)C)C(=O)N[C@@H](CCc2ccc(C(=O)NC)c(OC)c2)C(=O)N(C)[C@@H](Cc2ccccc2)C(=O)N(C)[C@@H](CC(C)C)C(=O)N[C@@H](CC(C)C)C(=O)N(C)[C@@H]([C@@H](C)CC)C(=O)N[C@H](C(=O)N2CCCCC2)CC(=O)N[C@H](C(C)C)C(=O)N[C@@H]([C@@H](C)O)C1=O [AP265] ([dV]T[NBuGly]LP[NMeV][hPhe(3-OMe,4-CONHMe)][NMeF][NMeL]L[NMeI]D-Piperidide; lactam N-12) | 0.46 ×10⁻⁶ cm/s | 
